The structures appear in SMILES notation.

This experiment deals with HCT-116. The experiment can be described thus: Cytotoxicity against human HCT116 cells. It is filed as functional, cell-based.

As to `C=CC[C@@H](C[C@@H](C[C@@H](C[C@@H](C[C@@H](C[C@@H](C[C@@H](C[C@@H](C[C@@H](C[C@@H](C[C@H](OC)/C(C)=C/CCCCC)OC)OC)OC)OC)OC)OC)OC)OC)OC)OC`, the midpoint of inhibition, the IC50, lay at 92 µM. This counts as double-digit micromolar.
In the case of `C=CC[C@@H](C[C@@H](C[C@@H](C[C@@H](C[C@@H](C[C@@H](C[C@@H](C[C@@H](C[C@H](OC)/C(C)=C/CCCCC)OC)OC)OC)OC)OC)OC)OC)OC` it was 86 µM; in that of `C=CC[C@@H](C[C@@H](C[C@@H](C[C@@H](C[C@@H](C[C@@H](C[C@@H](C[C@H](OC)/C(C)=C/CCCCC)OC)OC)OC)OC)OC)OC)OC`, 106 µM.
As to `C=CC[C@@H](C[C@@H](C[C@@H](C[C@@H](C[C@@H](C[C@@H](C[C@@H](C[C@@H](C[C@@H](C[C@H](OC)/C(C)=C/CCCCC)OC)OC)OC)OC)OC)OC)OC)OC)OC`, the IC50 (in general, the point on the concentration scale where inhibition reaches its midpoint) is 75 µM.
For `C=CC[C@@H](C[C@@H](C[C@@H](C[C@@H](C[C@@H](C[C@@H](C[C@H](OC)/C(C)=C/CCCCC)OC)OC)OC)OC)OC)OC`, half-maximal inhibition (IC50) required 119 µM.

For the origin of these results see ChEMBL document CHEMBL1150618, “Isotactic polymethoxydienes from the Philippines sponge Myriastra clavosa” (J Nat Prod, 2002).
